Measured values taken from patent publication US20060276464A1, “Diarylsulfone sulfonamides and use thereof” (Wyeth, priority 2005, published 2006).
Where “and” joins values, the source holds several entries; their conditions need not be identical. Equal values may be shown once. Read-outs that look alike come from different tables or passages of the source.

How the values were obtained:
SFRP-1 [1] = target: T1, SFRP-1 (Homo sapiens, UniProt Q8N474); assay: Fluorescence polarization binding assay (competitive displacement of a probe compound from SFRP-1); conditions: fluorescence anisotropy, 45 nM SFRP-1, 20 nM probe;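 further: test compound competes with a fluorescent probe held by SFRP-1, seen as a drop in probe anisotropy after incubation in darkness, with anisotropy as function of rising compound dose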
T1 sequence (Q8N474 32-314): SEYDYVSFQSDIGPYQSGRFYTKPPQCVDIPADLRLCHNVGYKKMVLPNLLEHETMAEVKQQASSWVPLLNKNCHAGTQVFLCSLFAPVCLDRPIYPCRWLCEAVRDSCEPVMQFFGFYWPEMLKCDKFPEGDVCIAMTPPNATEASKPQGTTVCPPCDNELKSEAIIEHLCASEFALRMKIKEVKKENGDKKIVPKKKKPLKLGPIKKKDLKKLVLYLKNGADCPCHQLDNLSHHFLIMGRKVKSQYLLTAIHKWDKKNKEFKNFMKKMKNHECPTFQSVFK

SFRP-1 [2] = target: T1, SFRP-1; assay: Cell-based assay for in vitro measurement of SFRP-1/SARP2 antagonist activity (U2OS cells co-transfected with 16x TCF-tk-Luciferase reporter, Wnt and hSFRP-1); conditions: for fold induction at 10 µM / fold induction at 15 µM: U2OS; for fold induction at 10 µM: read-out: Fold Induction with SFRP-1, U2OS cells, single dose 10 μM, luciferase reporter, fold induction over SFRP-1 control;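 on all read-outs here: U2OS cells co-transfected with a TCF-tk luciferase reporter, a Wnt vector, hSFRP-1 or empty vector and CMV-βgal, luciferase luminescence read in cell lysates alongside βgal activity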
[3] = read-out: Fold Induction with SFRP-1, Conc 15 μM, single dose, luciferase reporter, fold induction over SFRP-1 control, cells with SFRP-1
[4] = read-out: Fold Induction without SFRP-1, Conc 15 μM, single dose, luciferase reporter, cells without SFRP-1 (specificity control)
[5] = read-out: Fold Induction with SFRP-1, Conc 15 μM, with SFRP-1, fold induction over SFRP-1 control, single dose
[6] = read-out: Fold Induction without SFRP-1, Conc 15 μM, without SFRP-1, single dose

| SMILES | IC50 (SFRP-1 [1]) | EC50 (SFRP-1 [2]) | fold induction at 10 µM (SFRP-1 [2]) | also measured |
| --- | --- | --- | --- | --- |
| CN(CCNS(=O)(=O)c1cc(S(=O)(=O)c2ccccc2)ccc1C(F)(F)F)C(=O)c1cccnc1Cl [Example 851, 2-Chloro-N-methyl-N-[2-({[5-(phenylsulfonyl)-2-(trifluoromethyl)phenyl]sulfonyl}amino)ethyl]nicotinamide] | 400 nM | 1510 nM | 3.6 | – |
| CC(C)c1ccc(S(=O)(=O)c2ccc(F)cc2)cc1S(=O)(=O)NC1CCN(C(=O)c2ccc(C#N)cc2)CC1 [Example 531, N-[1-(4-cyanobenzoyl)piperidin-4-yl]-5-[(4-fluorophenyl)sulfonyl]-2-isopropylbenzenesulfonamide] | 400 nM | – | – | fold induction at 15 µM (SFRP-1 [2]; [3]): 2.5; fold induction at 15 µM (SFRP-1 [2]; [4]): 1.1 |
| CCCc1ccc(S(=O)(=O)c2ccc(F)cc2)cc1S(=O)(=O)NC1CCCC1 [Example 563, N-Cyclopentyl-5-[(4-fluorophenyl)sulfonyl]-2-propylbenzenesulfonamide] | 3000 nM | – | – | fold induction at 15 µM (SFRP-1 [2]; [3]): 2.8; fold induction at 15 µM (SFRP-1 [2]; [4]): 1.2 |
| COc1cc(C(=O)N2CCC(NS(=O)(=O)c3cc(S(=O)(=O)c4ccccc4)ccc3C(F)(F)F)CC2)cc(Cl)n1 [Example 715, N-[1-(2-chloro-6-methoxyisonicotinoyl)piperidin-4-yl]-5-(phenylsulfonyl)-2-(trifluoromethyl)benzenesulfonamide] | 400 nM | 1290 nM | 4.9 | – |
| O=C(O)c1ccc(-c2cccc(CNS(=O)(=O)c3cc(S(=O)(=O)c4ccccc4)ccc3C(F)(F)F)c2)cc1 [Example 997, 3′-[({[5-(phenylsulfonyl)-2-(trifluoromethyl)phenyl]sulfonyl}amino)methyl]biphenyl-4-carboxylic acid] | 900 nM | 3080 nM | – | – |
| CC(C)c1ccc(S(=O)(=O)c2ccccc2)cc1S(=O)(=O)NC1CC(C)(C)NC(C)(C)C1 [Example 935, 2-isopropyl-5-(phenylsulfonyl)-N-(2,2,6,6-tetramethylpiperidin-4-yl)benzenesulfonamide] | 7000 nM | 2530 nM | 2.5 | – |
| CC(C)c1ccc(S(=O)(=O)c2ccc(F)cc2)cc1S(=O)(=O)NCCC1CCCNC1 (stereo not shown) [Example 884, 5-[(4-fluorophenyl)sulfonyl]-2-isopropyl-N-(2-piperidin-3-ylethyl)benzenesulfonamide] | 1600 nM | 3400 nM | 2.7 | – |
| C[C@@H](C(N)=O)N1CCC(NS(=O)(=O)c2cc(S(=O)(=O)c3ccccc3)ccc2C(F)(F)F)CC1 [Example 1039, (2S)-2-[4-({[5-(phenylsulfonyl)-2-(trifluoromethyl)phenyl]sulfonyl}amino)piperidin-1-yl]propanamide] | 400 nM | 244 nM | – | – |
| COc1ccc2c(c1)C(O)C(NS(=O)(=O)c1cc(S(=O)(=O)c3ccccc3)ccc1C(F)(F)F)C2 (stereo not shown) [Example 1044, N-(1-hydroxy-6-methoxy-2,3-dihydro-1H-inden-2-yl)-5-(phenylsulfonyl)-2-(trifluoromethyl)benzenesulfonamide] | 500 nM | 1340 nM | – | – |
| CC(C)c1ccc(S(=O)(=O)c2ccc(F)cc2)cc1S(=O)(=O)NCCC#N [Example 664, N-(2-cyanoethyl)-5-[(4-fluorophenyl)sulfonyl]-2-isopropylbenzenesulfonamide] | 1700 nM | 2990 nM | 3.9 | – |
| CN(CCNS(=O)(=O)c1cc(S(=O)(=O)c2ccccc2)ccc1C(F)(F)F)CCC(=O)OC(C)(C)C [Example 961, tert-butyl N-methyl-N-[2-({[5-(phenylsulfonyl)-2-(trifluoromethyl)phenyl]sulfonyl}amino)ethyl]-[…]-alaninate] | 4000 nM | 2550 nM | 2.8 | – |
| COC(=O)CN1CCC(NS(=O)(=O)c2cc(S(=O)(=O)c3ccccc3)ccc2C(F)(F)F)CC1 [Example 1063, methyl [4-({[5-(phenylsulfonyl)-2-(trifluoromethyl)phenyl]sulfonyl)amino)piperidin-1-yl]acetate] | 140 nM | 455 nM | – | – |
| O=S(=O)(NCCc1cccnc1)c1cc(S(=O)(=O)c2ccccc2)ccc1C(F)(F)F [Example 677, 5-(phenylsulfonyl)-N-(2-pyridin-3-ylethyl)-2-(trifluoromethyl)benzenesulfonamide] | 160 nM | 489 nM | 3.8 | – |
| COc1ccc(S(=O)(=O)c2ccc(C)c(S(=O)(=O)NCCc3ccccn3)c2)c(OC)c1 [Example 423, 5-[(2,4-dimethoxyphenyl)sulfonyl]-2-methyl-N-(2-pyridin-2-ylethyl)benzenesulfonamide] | 10000 nM | – | – | fold induction at 15 µM (SFRP-1 [2]; [5]): 2.4; fold induction at 15 µM (SFRP-1 [2]; [6]): 1.1 |
| N#Cc1ccc(C(=O)N2CCC(NS(=O)(=O)c3cc(S(=O)(=O)c4ccccc4)ccc3Cl)CC2)cc1 [Example 657, 2-chloro-N-[1-(4-cyanobenzoyl)piperidin-4-yl]-5-(phenylsulfonyl)benzenesulfonamide] | 2400 nM | 9030 nM | 2.4 | – |
| Cc1nn(C)c(Cl)c1S(=O)(=O)c1ccc(C(C)C)c(S(=O)(=O)NCCc2ccccn2)c1 [Example 512, 5-[(5-chloro-1,3-dimethyl-1H-pyrazol-4-yl)sulfonyl]-2-isopropyl-N-(2-pyridin-2-ylethyl)benzenesulfonamide] | 1000 nM | – | – | fold induction at 15 µM (SFRP-1 [2]; [3]): 3.1; fold induction at 15 µM (SFRP-1 [2]; [4]): 1.1 |
| CC(C)(C)OC(=O)NCCNS(=O)(=O)c1cc(S(=O)(=O)c2ccccc2)ccc1C(F)(F)F [Example 742, tert-Butyl[2-({[5-(phenylsulfonyl)-2-(trifluoromethyl)phenyl]sulfonyl}amino)ethyl]carbamate] | 280 nM | – | 2.4 | – |
| O=C(O)CCC(=O)N1CCC(NS(=O)(=O)c2cc(S(=O)(=O)c3ccccc3)ccc2C(F)(F)F)C1 (stereo not shown) [Example 886, 4-oxo-4-[3-({[5-(phenylsulfonyl)-2-(trifluoromethyl)phenyl]sulfonyl}amino)pyrrolidin-1-yl]butanoic acid] | 150 nM | 1330 nM | 2.7 | – |
| O=S(=O)(NCC(O)c1ccccc1)c1cc(S(=O)(=O)c2ccccc2)ccc1C(F)(F)F (stereo not shown) [Example 682, N-(2-hydroxy-2-phenylethyl)-5-(phenylsulfonyl)-2-(trifluoromethyl)benzenesulfonamide] | 250 nM | 765 nM | 1.2 | – |
| Cc1ccc(S(=O)(=O)c2ccccc2)cc1S(=O)(=O)NCCCn1ccnc1 [Example 219, N-[3-(1H-imidazol-1-yl)propyl]-2-methyl-5-(phenylsulfonyl)benzenesulfonamide] | 3000 nM and 1100 nM and 2100 nM | – | – | Fold Induction with SFRP-1 (SFRP-1 [2]; Conc 15 μM, with SFRP-1, fold induction over SFRP-1 control, single dose): 3.6 fold; fold induction at 15 µM (SFRP-1 [2]; [5]): 3; fold induction at 15 µM (SFRP-1 [2]; [6]): 1.1 |
| O=C(c1cc(Cl)cnc1Cl)N1CCC(NS(=O)(=O)c2cc(S(=O)(=O)c3ccccc3)ccc2C(F)(F)F)CC1 [Example 977, N-{1-[(2,5-dichloropyridin-3-yl)carbonyl]piperidin-4-yl}-5-(phenylsulfonyl)-2-(trifluoromethyl)benzenesulfonamide] | 180 nM | 1100 nM | – | – |
| O=S(=O)(NCC1CCNCC1)c1cc(S(=O)(=O)c2ccccc2)ccc1C(F)(F)F [Example 899, 5-(phenylsulfonyl)-N-(piperidin-4-ylmethyl)-2-(trifluoromethyl)benzenesulfonamide] | 300 nM | 894 nM | 4.2 | – |
